Measurements reported in the NIST ThermoML archive (doi:10.1021/je3003404).
Numbers after ± are expanded uncertainties.

Assay: mn = molality of the nth substance listed, in mol/kg
Conditions: 101 kPa, Liquid; for viscosity: Capillary tube (Ostwald / Ubbelohde) method; for electrical conductivity: Dip type conductivity cell; for mass density: Pycnometric method; for speed of sound: Sing-around technique in a fixed-path interferometer

Question: Which results are given for `CCCCCCCCCCCCCCCC[N+](C)(C)CC.[Br-]` [ethylhexadecyldimethylammonium bromide] + O?
Answer: viscosity (298.15 K, m1 = 0.0002): 0.8803 ± 0.036 mPa·s; viscosity (298.15 K, m1 = 0.0005): 0.8841 ± 0.036 mPa·s; viscosity (298.15 K, m1 = 0.0008): 0.887 ± 0.036 mPa·s; viscosity (298.15 K, m1 = 0.0012): 0.8904 ± 0.036 mPa·s; viscosity (298.15 K, m1 = 0.0016): 0.8929 ± 0.036 mPa·s; viscosity (298.15 K, m1 = 0.002): 0.8952 ± 0.036 mPa·s; viscosity (298.15 K, m1 = 0.0025): 0.8979 ± 0.036 mPa·s; viscosity (298.15 K, m1 = 0.003): 0.9007 ± 0.037 mPa·s; electrical conductivity (298.15 K, m1 = 0.0002): 0.0027 ± 0.00011 S/m; electrical conductivity (298.15 K, m1 = 0.0005): 0.00707 ± 0.00028 S/m; electrical conductivity (298.15 K, m1 = 0.0008): 0.0105 ± 0.00042 S/m; electrical conductivity (298.15 K, m1 = 0.0012): 0.0119 ± 0.00048 S/m; electrical conductivity (298.15 K, m1 = 0.0016): 0.0127 ± 0.00051 S/m; electrical conductivity (298.15 K, m1 = 0.002): 0.0138 ± 0.00055 S/m; electrical conductivity (298.15 K, m1 = 0.0025): 0.0152 ± 0.00061 S/m; electrical conductivity (298.15 K, m1 = 0.003): 0.0161 ± 0.00065 S/m; mass density (298.15 K, m1 = 0.0002): 996.43 ± 0.43 kg/m3; mass density (298.15 K, m1 = 0.0005): 996.47 ± 0.43 kg/m3; mass density (298.15 K, m1 = 0.0008): 996.51 ± 0.42 kg/m3; mass density (298.15 K, m1 = 0.0012): 996.54 ± 0.41 kg/m3; mass density (298.15 K, m1 = 0.0016): 996.56 ± 0.41 kg/m3; mass density (298.15 K, m1 = 0.002): 996.58 ± 0.41 kg/m3; mass density (298.15 K, m1 = 0.0025): 996.6 ± 0.41 kg/m3; mass density (298.15 K, m1 = 0.003): 996.62 ± 0.41 kg/m3; speed of sound (298.15 K, m1 = 0.0002): 1498.5 ± 0.94 m/s; speed of sound (298.15 K, m1 = 0.0005): 1499.3 ± 0.94 m/s; speed of sound (298.15 K, m1 = 0.0008): 1500 ± 0.94 m/s; speed of sound (298.15 K, m1 = 0.0012): 1500.3 ± 0.94 m/s; speed of sound (298.15 K, m1 = 0.0016): 1500.1 ± 0.94 m/s; speed of sound (298.15 K, m1 = 0.002): 1499.9 ± 0.94 m/s; speed of sound (298.15 K, m1 = 0.0025): 1499.9 ± 0.94 m/s; speed of sound (298.15 K, m1 = 0.003): 1499.7 ± 0.94 m/s; viscosity (303.15 K, m1 = 0.0002): 0.7889 ± 0.032 mPa·s; viscosity (303.15 K, m1 = 0.0005): 0.792 ± 0.032 mPa·s; viscosity (303.15 K, m1 = 0.0008): 0.7945 ± 0.032 mPa·s; viscosity (303.15 K, m1 = 0.0012): 0.7978 ± 0.032 mPa·s; viscosity (303.15 K, m1 = 0.0016): 0.8001 ± 0.032 mPa·s; viscosity (303.15 K, m1 = 0.002): 0.8021 ± 0.033 mPa·s; viscosity (303.15 K, m1 = 0.0025): 0.8047 ± 0.033 mPa·s; viscosity (303.15 K, m1 = 0.003): 0.807 ± 0.033 mPa·s; electrical conductivity (303.15 K, m1 = 0.0002): 0.00301 ± 0.00012 S/m; electrical conductivity (303.15 K, m1 = 0.0005): 0.00808 ± 0.00032 S/m; electrical conductivity (303.15 K, m1 = 0.0008): 0.0127 ± 0.00051 S/m; electrical conductivity (303.15 K, m1 = 0.0012): 0.0144 ± 0.00058 S/m; electrical conductivity (303.15 K, m1 = 0.0016): 0.0153 ± 0.00061 S/m; electrical conductivity (303.15 K, m1 = 0.002): 0.0167 ± 0.00067 S/m; electrical conductivity (303.15 K, m1 = 0.0025): 0.0178 ± 0.00071 S/m; electrical conductivity (303.15 K, m1 = 0.003): 0.0194 ± 0.00078 S/m; mass density (303.15 K, m1 = 0.0002): 994.49 ± 0.42 kg/m3; mass density (303.15 K, m1 = 0.0005): 994.52 ± 0.43 kg/m3; mass density (303.15 K, m1 = 0.0008): 994.56 ± 0.42 kg/m3; mass density (303.15 K, m1 = 0.0012): 994.59 ± 0.42 kg/m3; mass density (303.15 K, m1 = 0.0016): 994.61 ± 0.41 kg/m3; mass density (303.15 K, m1 = 0.002): 994.62 ± 0.42 kg/m3; mass density (303.15 K, m1 = 0.0025): 994.64 ± 0.42 kg/m3; mass density (303.15 K, m1 = 0.003): 994.66 ± 0.42 kg/m3; speed of sound (303.15 K, m1 = 0.0002): 1510.3 ± 0.93 m/s; speed of sound (303.15 K, m1 = 0.0005): 1511 ± 0.93 m/s; speed of sound (303.15 K, m1 = 0.0008): 1511.8 ± 0.93 m/s; speed of sound (303.15 K, m1 = 0.0012): 1512.3 ± 0.93 m/s; speed of sound (303.15 K, m1 = 0.0016): 1512.2 ± 0.93 m/s; speed of sound (303.15 K, m1 = 0.002): 1512 ± 0.93 m/s; speed of sound (303.15 K, m1 = 0.0025): 1511.8 ± 0.93 m/s; speed of sound (303.15 K, m1 = 0.003): 1511.6 ± 0.93 m/s; viscosity (308.15 K, m1 = 0.0002): 0.7097 ± 0.029 mPa·s; viscosity (308.15 K, m1 = 0.0005): 0.7125 ± 0.029 mPa·s; viscosity (308.15 K, m1 = 0.0008): 0.7157 ± 0.029 mPa·s; viscosity (308.15 K, m1 = 0.0012): 0.719 ± 0.029 mPa·s; viscosity (308.15 K, m1 = 0.0016): 0.7209 ± 0.029 mPa·s; viscosity (308.15 K, m1 = 0.002): 0.7228 ± 0.029 mPa·s; viscosity (308.15 K, m1 = 0.0025): 0.725 ± 0.029 mPa·s; viscosity (308.15 K, m1 = 0.003): 0.7271 ± 0.03 mPa·s; electrical conductivity (308.15 K, m1 = 0.0002): 0.00338 ± 0.00014 S/m; electrical conductivity (308.15 K, m1 = 0.0005): 0.00879 ± 0.00035 S/m; electrical conductivity (308.15 K, m1 = 0.0008): 0.014 ± 0.00056 S/m; electrical conductivity (308.15 K, m1 = 0.0012): 0.0161 ± 0.00065 S/m; electrical conductivity (308.15 K, m1 = 0.0016): 0.017 ± 0.00068 S/m; electrical conductivity (308.15 K, m1 = 0.002): 0.0185 ± 0.00074 S/m; electrical conductivity (308.15 K, m1 = 0.0025): 0.0195 ± 0.00078 S/m; electrical conductivity (308.15 K, m1 = 0.003): 0.0217 ± 0.00087 S/m; mass density (308.15 K, m1 = 0.0002): 992.55 ± 0.43 kg/m3; mass density (308.15 K, m1 = 0.0005): 992.58 ± 0.43 kg/m3; mass density (308.15 K, m1 = 0.0008): 992.61 ± 0.42 kg/m3; mass density (308.15 K, m1 = 0.0012): 992.63 ± 0.42 kg/m3; mass density (308.15 K, m1 = 0.0016): 992.65 ± 0.42 kg/m3; mass density (308.15 K, m1 = 0.002): 992.66 ± 0.42 kg/m3; mass density (308.15 K, m1 = 0.0025): 992.67 ± 0.42 kg/m3; mass density (308.15 K, m1 = 0.003): 992.69 ± 0.42 kg/m3; speed of sound (308.15 K, m1 = 0.0002): 1518.6 ± 0.93 m/s; speed of sound (308.15 K, m1 = 0.0005): 1519.2 ± 0.94 m/s; speed of sound (308.15 K, m1 = 0.0008): 1519.9 ± 0.94 m/s; speed of sound (308.15 K, m1 = 0.0012): 1520.4 ± 0.94 m/s
